# Measured values as given in patent US20110251160A1 (priority 2008, published 2011).
# Read-outs that look alike come from different tables or passages of the source.
# Legend:
# [1] = system: patients with atrial fibrillation at risk of stroke
# From the text: Median follow-up was 2.0 years and the primary outcome was stroke or systemic embolism.
# Patients were recruited from 951 clinical centers in 44 countries. In brief, patients were eligible if they had atrial fibrillation documented on electrocardiogram at screening or within 6 months; and at least one of the following: prior stroke or transient ischemic attack; left ventricular ejection fraction less than 40%; New York Heart Association heart failure symptoms of Class 2 or greater within 6 months; age at least 75 years; or age at least 65 years with diabetes mellitus, hypertension or coronary artery disease.
# The time in therapeutic range was calculated by the method of Rosendaal (Rosendaal F R, et al., A method to determine the optimal intensity of oral anticoagulant therapy, Thromb Haemost, 1993, 69:236-239), excluding INRs from the first week and after discontinuations. […] Concomitant use of aspirin (less than 100 mg/day) or other antiplatelet agents was allowed.
# Liver function testing was performed monthly during the first year of follow-up.
# The primary study outcome was stroke or systemic embolism. The primary safety outcome was major hemorrhage. Secondary outcomes were stroke, systemic embolism and death. Other outcomes were myocardial infarction, pulmonary embolism, transient ischemic attacks, and hospitalizations. The primary net benefit-risk outcome was the composite of stroke, systemic embolism, pulmonary embolism, myocardial infarction, death or major hemorrhage. Stroke was defined as sudden onset of focal neurological deficit consistent with the territory of a major cerebral artery and categorized as ischemic, hemorrhagic or unspecified. Hemorrhagic transformation of ischemic stroke was not considered as hemorrhagic stroke. Intracranial hemorrhage included hemorrhagic stroke and sub-dural or sub-arachnoid hemorrhage. Systemic embolism was an acute vascular occlusion of an extremity or organ documented by imaging, surgery or autopsy. Major bleeding was defined as a reduction in hemoglobin level of at least […] or transfusion of at least 2 units of blood or symptomatic bleeding in a critical area or organ. Life-threatening bleeding was a subset of major bleeding that included fatal bleeding, symptomatic intracranial bleeding, bleeding with hemoglobin decrease of more than […] or requiring transfusion of more than 4 units of blood or requiring inotropic agents or necessitating surgery. All other bleeding was considered minor.
# All primary and secondary outcome events were blindly and doubly adjudicated. An international team of adjudicators reviewed documents in local languages after blinding; or documents were translated by a independent group and blinded centrally. All transient ischemic attacks were reviewed to ensure that strokes had not been missed. To detect possible unreported events, symptom questionnaires were regularly administered to patients, and adverse events and hospitalization reports were scrutinized for unreported primary or secondary outcomes.
# If maximum of the two p-values was greater than 0.025, the minimum of the two p-values must be less than 0.0125, one-sided, to claim statistical significance. All analyses were based on intention-to-treat.
# AF patients [2] = settings: SPORTIF III (2003), cited from earlier work
# AF patients [3] = settings: SPORTIF V (2005), cited from earlier work
# AF patients [4] = settings: ACTIVE W (2006), warfarin arm; cited from earlier work
# [5] = system: patients who have nonvalvular atrial fibrillation; settings: VKAs, such as warfarin; cited from earlier work
# [6] = ximelagatran 36 mg b.i.d. vs. warfarin
structure (smiles),measurement,setting,value
"CC(=O)CC(c1ccccc1)c1c(O)c2ccccc2oc1=O (racemic) [Warfarin, 3-(α-acetonylbenzyl)4-hydroxycoumarin, reference compound]",ALT or AST > 3xULN,[1]; Warfarin arm,(2.1) %
same,ALT or AST > 3xULN with concurrent bilirubin > 2xULN,[1]; Warfarin arm,(0.4) %
same,Adverse Event: Arthralgia,[1]; Warfarin arm,(5.5) %
same,Adverse Event: Atrial fibrillation,[1]; Warfarin arm,(5.4) %
same,Adverse Event: Back pain,[1]; Warfarin arm,(5.5) %
same,Adverse Event: Chest pain,[1]; Warfarin arm,(5.7) %
same,Adverse Event: Cough,[1]; Warfarin arm,(5.8) %
same,Adverse Event: Diarrhea,[1]; Warfarin arm,(5.5) %
same,Adverse Event: Dizziness,[1]; Warfarin arm,(9.3) %
same,Adverse Event: Dyspepsia,[1]; Warfarin arm,(1.4) %
same,Adverse Event: Dyspnoea,[1]; Warfarin arm,(9.2) %
same,Adverse Event: Fatigue,[1]; Warfarin arm,(5.9) %
same,Adverse Event: Nasopharyngitis,[1]; Warfarin arm,(5.5) %
same,Adverse Event: Peripheral edema,[1]; Warfarin arm,(7.6) %
same,Adverse Event: Upper respiratory tract infection,[1]; Warfarin arm,(5.0) %
same,Adverse Event: Urinary tract infection,[1]; Warfarin arm,(5.3) %
same,"All Death, Rate",[1]; Warfarin arm,4.13 /100 Person Years
same,"Any Major Bleeding, Rate",[1]; Warfarin arm,3.46 /100 Person Years
same,"Extracranial Bleeding, Rate",[1]; Warfarin arm,2.73 /100 Person Years
same,"First Hospitalization, Rate",[1]; Warfarin arm,27.5 /100 Person Years
same,"Intracranial Bleeding, Rate",[1]; Warfarin arm,0.72 /100 Person Years
same,"Life threatening bleeding, Rate",[1]; Warfarin arm,1.80 /100 Person Years
same,"Major gastro-intestinal Bleeding, Rate",[1]; Warfarin arm,1.03 /100 Person Years
same,"Major or Minor Bleeding, Rate",[1]; Warfarin arm,23.92 /100 Person Years
same,"Minor Bleeding, Rate",[1]; Warfarin arm,21.03 /100 Person Years
same,"Myocardial Infarction, Rate",[1]; Warfarin arm,0.54 /100 Person Years
same,"Non-disabling Stroke Modified Rankin 0-2, Rate",[1]; Warfarin arm,0.58 /100 Person Years
same,"Other Major bleeding, Rate",[1]; Warfarin arm,1.80 /100 Person Years
same,"Pulmonary embolism, Rate",[1]; Warfarin arm,0.09 /100 Person Years
same,Reason for discontinuation: Gastrointestinal bleeding,[1]; Warfarin arm,(0.9) %
same,Reason for discontinuation: Gastrointestinal disorders,[1]; Warfarin arm,(0.8) %
same,Reason for discontinuation: Outcome event,[1]; Warfarin arm,(2.2) %
same,Reason for discontinuation: Patient decision,[1]; Warfarin arm,(6.2) %
same,Reason for discontinuation: SAE,[1]; Warfarin arm,(1.6) %
same,"Stroke or systemic embolism, Rate",[1]; Warfarin arm,1.70 /100 Person Years
same,"Stroke, Hemorrhagic, Rate",[1]; Warfarin arm,0.38 /100 Person Years
same,"Stroke, Rate",[1]; Warfarin arm,1.58 /100 Person Years
same,Study Drug Discontinuation At one year,[1]; Warfarin arm,(10) %
same,Study Drug Discontinuation At two years,[1]; Warfarin arm,(19) %
same,"Vascular Death, Rate",[1]; Warfarin arm,2.69 /100 Person Years
same,hepatobiliary disorders (AE),[1]; Warfarin arm,(2.2) %
same,hepatobiliary disorders (SAE),[1]; Warfarin arm,(0.4) %
same,Study Drug Discontinuation At one year,"[1]; Warfarin arm, listed as warfarin",10%
same,"Stroke, systemic embolism, pulmonary embolism, myocardial infarction death or major bleed, Rate","[1]; net benefit, Warfarin arm",7.99 /100 Person Years
same,"Mortality rate, death from any cause",[1]; warfarin,4.13 % per year
same,Rate of discontinuation at 2.5 years,[1]; warfarin,19%
same,Rate of hemorrhagic stroke,[1]; warfarin,0.38 % per year
same,Rate of major hemorrhage / major bleeding,[1]; warfarin,3.46 % per year
same,Rate of myocardial infarction,[1]; warfarin,0.54 % per year
same,"Rate of net benefit-risk outcome (major vascular events, major bleeding and death)",[1]; warfarin,7.99 % per year
same,"Rate of the primary outcome, stroke or systemic embolism",[1]; warfarin,1.70 % per year
same,Stroke and systemic embolism (per 100 patient years),AF patients [2]; [6],2.3%
same,Myocardial Infarction,AF patients [2]; ximelagatran vs. warfarin,0.6%
same,Stroke and systemic embolism (per 100 patient years),AF patients [3]; [6],1.2%
same,Myocardial Infarction,AF patients [3]; ximelagatran vs. warfarin,1.4%
same,Myocardial Infarction,AF patients [4],0.6%
same,Stroke and systemic embolism (per 100 patient years),AF patients [4],1.5%
same,Reduction of the risk of stroke compared to control,[5],64%
